Source: patent US20250101041A1, “POSITIVE ALLOSTERIC MODULATORS OF THE MUSCARINIC ACETYLCHOLINE RECEPTOR M4” (Vanderbilt University, priority 2022, published 2025)

Target: T1, human mAChR M4 (Homo sapiens, UniProt P08173)
T1 construct: expressed in transfected cells; host or cells: CHO-K1 (American Type Culture Collection), stably expressing hM4 and Gqi5
T1 sequence (P08173 1-479): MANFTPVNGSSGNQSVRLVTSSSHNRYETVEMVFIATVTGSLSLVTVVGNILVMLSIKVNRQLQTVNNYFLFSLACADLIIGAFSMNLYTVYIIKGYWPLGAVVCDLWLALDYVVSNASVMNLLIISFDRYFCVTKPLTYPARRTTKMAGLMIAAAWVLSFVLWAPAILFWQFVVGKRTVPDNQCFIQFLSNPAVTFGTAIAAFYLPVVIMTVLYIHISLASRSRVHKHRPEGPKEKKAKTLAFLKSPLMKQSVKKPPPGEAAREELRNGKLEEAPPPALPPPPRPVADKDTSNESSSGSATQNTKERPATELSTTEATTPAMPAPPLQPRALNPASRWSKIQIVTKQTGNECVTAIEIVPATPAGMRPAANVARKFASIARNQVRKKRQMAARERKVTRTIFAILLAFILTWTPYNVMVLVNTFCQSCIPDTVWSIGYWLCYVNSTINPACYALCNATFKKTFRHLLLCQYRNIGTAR
Assay: mAChR M4 cell-based functional assay: calcium mobilization (Fluo-4, FDSS), potentiation of EC20 acetylcholine response in hM4-Gqi5 CHO-K1 cells
Conditions: human M4; for Emax at 30 µM: CHO-K1, % ACh maximum at 30 μM; for EC50: potentiation of EC20 acetylcholine response, calcium mobilization
Outline: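 CHO-K1 cells stably co-expressing human M4 and chimeric Gqi5, loaded with Fluo-4 AM (50 min, 37 °C). Compounds in 11-point 1:3 series added first; EC20 acetylcholine added at 144 s and again at 230 s. Calcium read on FDSS at 1 Hz; EC50 and Emax from four-parameter logistic fit of potentiated EC20 response.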

Emax at 30 µM [%]	EC50 [nM]	SMILES
70	200	Cc1c(N2CCc3ncc(-c4cc(F)ccc4F)cc3C2)nn2c(=O)ccnc2c1C [Compound 1-345, 7-(3-(2,5-difluorophenyl)-7,8-dihydro-1,6-naphthyridin-6(5H)-yl)-8,9-dimethyl-4H-pyrimido[1,2-b]pyridazin-4-one]
67	483	Cc1c(N2CCc3ncc(-c4cc(F)cc(F)c4F)cc3C2)nn2c(=O)ccnc2c1C [Compound 1-346, 8,9-dimethyl-7-(3-(2,3,5-trifluorophenyl)-7,8-dihydro-1,6-naphthyridin-6(5H)-yl)-4H-pyrimido[1,2-b]pyridazin-4-one]
80	217	Cc1c(N2CCc3ncc(-c4ccc(F)cc4F)cc3C2)nn2c(=O)ccnc2c1C [Compound 1-347, 7-(3-(2,4-difluorophenyl)-7,8-dihydro-1,6-naphthyridin-6(5H)-yl)-8,9-dimethyl-4H-pyrimido[1,2-b]pyridazin-4-one]
68	2600	Cc1cccnc1-c1cnc2c(c1)CN(c1nn3c(=O)ccnc3cc1C)CC2 [Compound 1-348, 8-methyl-7-(3-(3-methylpyridin-2-yl)-7,8-dihydro-1,6-naphthyridin-6(5H)-yl)-4H-pyrimido[1,2-b]pyridazin-4-one]
69	1140	Cc1cc2nccc(=O)n2nc1N1CCc2ncc(-c3ccccn3)cc2C1 [Compound 1-349, 8-methyl-7-(3-(pyridin-2-yl)-7,8-dihydro-1,6-naphthyridin-6(5H)-yl)-4H-pyrimido[1,2-b] pyridazin-4-one]
72	3450	Cc1cc(F)cnc1-c1cnc2c(c1)CN(c1nn3c(=O)ccnc3cc1C)CC2 [Compound 1-350, 7-(3-(5-fluoro-3-methylpyridin-2-yl)-7,8-dihydro-1,6-naphthyridin-6(5H)-yl)-8-methyl-4H-pyrimido[1,2-b]pyridazin-4-one]
55	426	Cc1ccc(-c2cnc3c(c2)CN(c2nn4c(=O)ccnc4cc2C)CC3)nc1 [Compound 1-351, 8-methyl-7-(3-(5-methylpyridin-2-yl)-7,8-dihydro-1,6-naphthyridin-6(5H)-yl)-4H-pyrimido[1,2-b]pyridazin-4-one]
59	3310	Cc1cc2nccc(=O)n2nc1N1CCc2ncc(-c3cccnn3)cc2C1 [Compound 1-352, 8-methyl-7-(3-(pyridazin-3-yl)-7,8-dihydro-1,6-naphthyridin-6(5H)-yl)-4H-pyrimido[1,2-b]pyridazin-4-one]
55	1270	Cc1ccc(-c2cnc3c(c2)CN(c2nn4c(=O)ccnc4cc2C)CC3)nn1 [Compound 1-353, 8-methyl-7-(3-(6-methylpyridazin-3-yl)-7,8-dihydro-1,6-naphthyridin-6(5H)-yl)-4H-pyrimido[1,2-b] pyridazin-4-one]
63	2540	Cc1cc2nccc(=O)n2nc1N1CCc2ncc(-c3cc(F)ccn3)cc2C1 [Compound 1-354, 7-(3-(4-fluoropyridin-2-yl)-7,8-dihydro-1,6-naphthyridin-6(5H)-yl)-8-methyl-4H-pyrimido [1,2-b]pyridazin-4-one]
78	1520	Cc1cc(C#N)ncc1-c1cnc2c(c1)CN(c1nn3c(=O)ccnc3cc1C)CC2 [Compound 1-355, 4-methyl-5-(6-(8-methyl-4-oxo-4H-pyrimido[1,2-b]pyridazin-7-yl)-5,6,7,8-tetrahydro-1,6-naphthyridin-3-yl)picolinonitrile]
70	–	Cc1ccnnc1-c1cnc2c(c1)CN(c1nn3c(=O)ccnc3cc1C)CC2 [Compound 1-356, 8-methyl-7-(3-(4-methylpyridazin-3-yl)-7,8-dihydro-1,6-naphthyridin-6(5H)-yl)-4H-pyrimido[1,2-b]pyridazin-4-one]
86	383	COCc1cc(=O)n2nc(N3CCc4ncc(-c5cnc(Cl)cc5C)cc4C3)c(C)cc2n1 [Compound 1-357, 7-(3-(6-chloro-4-methylpyridin-3-yl)-7,8-dihydro-1,6-naphthyridin-6(5H)-yl)-2-(methoxymethyl)-8-methyl-4H-pyrimido[1,2-b]pyridazin-4-one]
83	337	COCc1cc(=O)n2nc(N3CCc4ncc(-c5cccc(F)c5)cc4C3)c(C)cc2n1 [Compound 1-358, 7-(3-(3-fluorophenyl)-7,8-dihydro-1,6-naphthyridin-6(5H)-yl)-2-(methoxymethyl)-8-methyl-4H-pyrimido[1,2-b] pyridazin-4-one]
82	136	COCc1cc(=O)n2nc(N3CCc4ncc(-c5cnccc5C)cc4C3)c(C)cc2n1 [Compound 1-359, 2-(methoxymethyl)-8-methyl-7-(3-(4-methylpyridin-3-yl)-7,8-dihydro-1,6-naphthyridin-6(5H)-yl)-4H-pyrimido[1,2-b] pyridazin-4-one]
83	245	COCc1cc(=O)n2nc(N3CCc4ncc(-c5ccccc5F)cc4C3)c(C)cc2n1 [Compound 1-360, 7-(3-(2-fluorophenyl)-7,8-dihydro-1,6-naphthyridin-6(5H)-yl)-2-(methoxymethyl)-8-methyl-4H-pyrimido[1,2-b] pyridazin-4-one]
82	351	COCc1cc(=O)n2nc(N3CCc4ncc(-c5ccnc(C)c5)cc4C3)c(C)cc2n1 [Compound 1-361, 2-(methoxymethyl)-8-methyl-7-(3-(2-methylpyridin-4-yl)-7,8-dihydro-1,6-naphthyridin-6(5H)-yl)-4H-pyrimido[1,2-b] pyridazin-4-one]
78	337	COCc1cc(=O)n2nc(N3CCc4ncc(-c5ccncc5)cc4C3)c(C)cc2n1 [Compound 1-362, 2-(methoxymethyl)-8-methyl-7-(3-(pyridin-4-yl)-7,8-dihydro-1,6-naphthyridin-6(5H)-yl)-4H-pyrimido[1,2-b] pyridazin-4-one]
65	3060	COCc1cc(=O)n2nc(N3CCc4ncc(-c5ccccc5OC(F)(F)F)cc4C3)c(C)cc2n1 [Compound 1-363, 2-(methoxymethyl)-8-methyl-7-(3-(2-(trifluoromethoxy)phenyl)-7,8-dihydro-1,6-naphthyridin-6(5H)-yl)-4H-pyrimido[1,2-b] pyridazin-4-one]
68	298	COCc1cc(=O)n2nc(N3CCc4ncc(-c5cnn(C6CC6)c5)cc4C3)c(C)cc2n1 [Compound 1-364, 7-(3-(1-cyclopropyl-1H-pyrazol-4-yl)-7,8-dihydro-1,6-naphthyridin-6(5H)-yl)-2-(methoxymethyl)-8-methyl-4H-pyrimido[1,2-b]pyridazin-4-one]
69	325	COCc1cc(=O)n2nc(N3CCc4ncc(-c5cccnc5)cc4C3)c(C)cc2n1 [Compound 1-365, 2-(methoxymethyl)-8-methyl-7-(3-(pyridin-3-yl)-7,8-dihydro-1,6-naphthyridin-6(5H)-yl)-4H-pyrimido[1,2-b] pyridazin-4-one]
72	284	COCc1cc(=O)n2nc(N3CCc4ncc(-c5cnn(C)c5C)cc4C3)c(C)cc2n1 [Compound 1-366, 7-(3-(1,5-dimethyl-1H-pyrazol-4-yl)-7,8-dihydro-1,6-naphthyridin-6(5H)-yl)-2-(methoxymethyl)-8-methyl-4H-pyrimido[1,2-b]pyridazin-4-one]
71	141	COCc1cc(=O)n2nc(N3CCc4ncc(-c5cccs5)cc4C3)c(C)cc2n1 [Compound 1-367, 2-(methoxymethyl)-8-methyl-7-(3-(thiophen-2-yl)-7,8-dihydro-1,6-naphthyridin-6(5H)-yl)-4H-pyrimido[1,2-b] pyridazin-4-one]
95	293	COCc1cc(=O)n2nc(N3CCc4ncc(-c5sccc5OC)cc4C3)c(C)cc2n1 [Compound 1-368, 2-(methoxymethyl)-7-(3-(3-methoxythiophen-2-yl)-7,8-dihydro-1,6-naphthyridin-6(5H)-yl)-8-methyl-4H-pyrimido[1,2-b]pyridazin-4-one]
99	46	COCc1cc(=O)n2nc(N3CCc4ncc(-c5ccc(CO)s5)cc4C3)c(C)cc2n1 [Compound 1-369, 7-(3-(5-(hydroxymethyl)thiophen-2-yl)-7,8-dihydro-1,6-naphthyridin-6(5H)-yl)-2-(methoxymethyl)-8-methyl-4H-pyrimido[1,2-b] pyridazin-4-one]
94	153	COCc1cc(=O)n2nc(N3CCc4ncc(-c5ccsc5)cc4C3)c(C)cc2n1 [Compound 1-370, 2-(methoxymethyl)-8-methyl-7-(3-(thiophen-3-yl)-7,8-dihydro-1,6-naphthyridin-6(5H)-yl)-4H-pyrimido[1,2-b]pyridazin-4-one]
92	140	COCc1cc(=O)n2nc(N3CCc4ncc(-c5ccco5)cc4C3)c(C)cc2n1 [Compound 1-371, 7-(3-(furan-2-yl)-7,8-dihydro-1,6-naphthyridin-6(5H)-yl)-2-(methoxymethyl)-8-methyl-4H-pyrimido[1,2-b]pyridazin-4-one]
